Entries after “also recorded” stand apart in the source; their conditions may differ.
Experiments:
Format in all cases: cell-based, human
[1] = test system: OPA1 isoforms in HeLa cells; assay: Ratios of OPA1 isoforms by western blot densitometry, uncoupler experiment
Description: (§1) a, HeLa cells and human fibroblasts were treated with CCCP (20 μM) for 6 h and total cell extracts were subjected to western blotting with OPA1 antibodies. b-d, Cells were treated or not (Control) with CCCP (20 μM) for 30 min, washed, and incubated further with medium lacking CCCP for the indicated time periods or CCCP (20 μM) was left for 6 h. In parallel, these experiments were performed in the presence of cycloheximide (CHX; 175 μg/ml). Cells were stained with MitoTracker (red) and with cytochrome c antibodies (green).
Cell pellets were lysed in Lämmli-buffer 1× and heated for 5 min at 95° C. Samples equivalent to ˜10^6 cells were loaded on a 10% acrylamid gel (12 cm high×16 cm wide plates separated by 1.5 mm thick spacers). Gels were run for 3.5 hours at constant 30 mA or until the 37 kD band of the BioRad Precision Plus Protein standard reaches the bottom of the gel. The proteins were transferred to a nitrocellulose membrane by semi-dry blotting for 1.5 hours at 200 mA using Tris/glycine buffer. The membrane was incubated in TBS buffer containing 5% non fat milk powder for 30 min. The membrane was then incubated in TBS buffer containing 5% non fat milk powder and affinity purified rabbit OPA1 antibodies (raised against the C-terminal peptide of OPA1: […] (SEQ ID No: 30)) diluted 1:500 for 1 hour. After three rapid washes to remove the primary antibody in excess, the membrane was further incubated for 1 hour in TBS containing 5% non fat milk powder and secondary antibodies anti rabbit conjugated to HRP (horseradish peroxidase) diluted 1:10,000 (BioRad). The membrane was then washed in TBS, once rapidly, and four more times for 5 min each. ECL reagent (enhanced chemoluminescence reagent) was used to reveal the different OPA1 isoform bands on the membrane. Expositions of 1 to 2 min were usually sufficient to detect all OPA1 forms. The compositions of the buffers and gels to be employed are as follows.
From the results of the below described uncoupler experiments using HeLa cells (Example 9; FIG. 9a), the ratio of the relative amount of various OPA1 isoforms was determined. For this purpose, total protein extracts were separated by SDS-PAGE and immunoblotted using an antibody raised against the C-terminus of OPA1. The western blot was scanned and densitometrically analysed using standard imaging software. The intensity of each band was determined and the background intensity was subtracted.

HeLa cells [2] = assay: Uncoupler experiments: mitochondrial morphology and cytochrome c by confocal fluorescence microscopy
Description: b, Quantification of mitochondrial morphology in cells: Tubular, at least one mitochondrial tubule of 5 μm or more; intermediate, at least one between 0.5 and 5 μm but none more than 5 μm; fragmented, none of more than 0.5 μm in length. Error bars represent standard deviation of five slides evaluated.
as §1
(§2) Live cells were fluorescently labeled with MitoTracker® Red CMXRos (Molecular probes, USA) for mitochondria or with 4′,6-diamidino-2-phenylindole dihydrochloride (DAPI; Molecular probes, USA) for the nucleus, subsequently fixed, and permeabilised. Immunostaining was carried out with mouse anti-cytochrome c monoclonal antibody (clone 6H2.B4; BD Biosciences) and chicken anti-GFP antibody (Ayes Lab Inc., USA). The following secondary antibodies conjugated to fluorescent dyes were used: Alexa Fluor® 488 anti-mouse IgG (H+L) (Molecular probes, USA), Cy3-conjugated anti-mouse IgG and Fluorescein (FITC)-conjugated anti-chicken IgG (Jackson Immunoresearch, USA). Cells were mounted with Prolong® Gold antifade reagent (Molecular probes, USA). All treatments were done according to the manufacturers' instructions. Mitochondrial morphology was analysed by confocal microscopy using a Zeiss LSM 510 (Carl Zeiss Microscopy, Jena, Germany) equipped with a 63× objective. For all imaging, 512×512 pixel images of single confocal planes were acquired and processed with the Bitplane Imaris 4 software. This technique was particularly employed for FIGS. 5 to 7 and 9 and the corresponding examples.

[3] = test system: OPA1 isoforms in HeLa cells; assay: Pulse-chase experiment of OPA1 isoforms; conditions: 20 μM CCCP for 1 hour during chase
Description: HeLa cells were subjected to radioactive labeling of newly synthesized proteins. After labeling cells were washed, incubated for the indicated time in the absence of radiolabeled amino acids (chase) either in the presence or the absence of CCCP (20 μM). Cells were lysed at indicated times of chase and subjected to immunoprecipitation with antibodies raised against OPA1. Elution fractions were analyzed by digital autoradiography (top panel) and the same membrane was subjected to western blot analysis using OPA1 antibodies (bottom panel). The different OPA1 isoforms are indicated by arrows and named L1-, L2-, S3-, S4- and S5-OPA1.
The large OPA1 isoforms l-OPA1#1 and l-OPA1#2 are converted to the small OPA1 isoforms s-OPA1#3, s-OPA1#4 and/or s-OPA1#5. […] Then cells were washed 3 times with PBS and 1 ml fresh DMEM medium +10% FCS without radioactive methione (chase) was added. Cells were either treated with 20 μM CCCP for 1 hour or not. OPA1 was immunoprecipitated using an antibody raised against the C-terminus of OPA1 and OPA1 was detected by autoradiography and by western-blotting after SDS-PAGE. […] Accordingly, it can be concluded that l-OPA1 isoforms are actually converted to s-OPA1 isofoms, in particular towards s-OPA1#5.

[4] = test system: OPA1 isoforms in HeLa cells or fibroblasts; assay: Uncoupler experiments: OPA1 isoform pattern by western blot; conditions: CCCP 20 μM 6 h
Description: as §1
d, OPA1 isoforms by western blot analysis. Extracts of untreated cells (C) and of cells treated for 6 h with CHX alone (+CHX 6 h) were used as controls.
It was further observed whether dissipation of the membrane potential is sufficient to trigger changes in abundance of OPA1 isoforms and fragmentation of mitochondria. […] Proteolytic processing occurs within mitochondria as shown by cellular fractionation experiments (FIG. 10c). This is specific for OPA1 since degradation of other mitochondrial proteins is not observed (FIG. 10c). Fragmentation of mitochondria occurred rapidly within 15 to 30 min after addition of CCCP (FIG. 9bc). Processing of OPA1 took place within the same narrow time frame (FIG. 9d). Impairment of fusion of mitochondria may therefore be due to rapid inactivation of OPA1 by proteolysis of large isoforms. […]

[5] = test system: OPA1 processing in HeLa cells; assay: Protease inhibitors on uncoupler-induced conversion of larger OPA1 isoforms to smaller isoforms; conditions: HeLa cells preincubated 10 min with inhibitor, then CCCP 25 min
Description: a, The protease inhibitor o-phenanthroline (o-Phe) and partially DCI (3,4-Dichloroisocoumarin), but not phenylmethylsulphonylfluoride (PMSF) block uncoupler induced conversion of larger OPA1 isoforms to smaller isoforms. HeLa cells were preincubated for 10 min with or without the protease inhibitors at the indicated concentration before CCCP (20 μM) was added. Cells were further incubated for 25 min before they were harvested, lysed in loading buffer, loaded on a SDS-PAGE, and immunoblotted with OPA1 antibodies.

HeLa cells [6] = assay: Staurosporine-induced apoptosis: mitochondrial fragmentation, cytochrome c release, OPA1 isoforms; conditions: 1 μM staurosporine
Description: HeLa cells were treated with 1 μM staurosporine for the indicated time periods, stained with MitoTracker (red) and with cytochrome c antibodies (green).
b, Cells were classified. Tubular, at least one mitochondrial tubule of 5 μm or more; intermediate, at least one between 0.5 and 5 μm but none more than 5 μm; fragmented, none of more than 0.5 μm in length. A representative experiment out of three is shown.
c, Cells were classified for cytochrome c release by immunostaining. Not released, completely colocalised with MitoTracker; intermediate, partly co-localised with MitoTracker; and released, not co-localised with MitoTracker.
d, OPA1 protein isoforms were determined by western blot analysis of total cell extracts. Total cell extracts (C) and isolated mitochondria (M) from untreated HeLa cells were used as controls.
as §2

[7] = HeLa +CCCP (20 μM, 6 h), densitometry of western blot

N#CC(C#N)=NNc1cccc(Cl)c1 [CCCP, carbonyl cyanide 3-chlorophenylhydrazone] was tested, and the “OPA1#3 + #4 + #5/ all bands %” value [1, 7] was 93.0%, the “OPA1#3 + #5/ all bands %” value [1, 7] was 64.8% and the “OPA1#3/ all bands %” value [1, 7] was 19.2%. The “OPA1#4/ all bands %” value [1, 7] was 28.2%, the “OPA1#5/ all bands %” value [1, 7] was 45.6% and the “fold increase of OPA1#3 + #4 + #5/ all bands” value ([1]; HeLa +CCCP versus HeLa −CCCP) was 2.0 fold. The “fold increase of OPA1#3 + #5/ all bands” value ([1]; HeLa +CCCP versus HeLa −CCCP) was 3.2 fold, the “fold increase of OPA1#3/ all bands” value ([1]; HeLa +CCCP versus HeLa −CCCP) was 1.9 fold and the “fold increase of OPA1#4/ all bands” value ([1]; HeLa +CCCP versus HeLa −CCCP) was 1.0 fold. For the same molecule, the “fold increase of OPA1#5/ all bands” value ([1]; HeLa +CCCP versus HeLa −CCCP) was 4.4 fold, the “time to fragmentation of mitochondria after addition” value (HeLa cells [2]; CCCP 20 μM) was 15 to 30 min and the “mitochondrial morphology upon removal of the uncoupler” value (HeLa cells [2]; CCCP 20 μM 30 min, then washed) was “normal mitochondrial morphology was recovered”. The cytochrome c release (HeLa cells [2]; CCCP treatment) was “not accompanied by cytochrome c release”, the “change of OPA1 isoforms in pulse-chase (autoradiography and western blot)” value [3] was “shift from the large isoforms to the short isoforms” and the “change of OPA1 isoform pattern” value [4] was “dramatic shift of OPA1 isoforms towards the smaller isoforms”.

For O=c1oc(Cl)c(Cl)c2ccccc12 [DCI, 3,4-Dichloroisocoumarin], the “block of uncoupler (CCCP 20 μM) induced proteolytic processing of OPA1” value (shortened to “block of uncoupler”) [5] was “(at least partially) blocked”.

O=S(=O)(F)Cc1ccccc1 [PMSF, phenylmethylsulphonylfluoride] was tested, and the “block of uncoupler” value [5] was “not”.

For C[C@@H]1C[C@@H]([C@H](O)CC2CC(=O)NC(=O)C2)C(=O)[C@@H](C)C1 [cycloheximide], the “recovery of tubular mitochondrial network and reappearance of large OPA1 isoforms after CCCP removal” value (HeLa cells [2]; CHX 175 μg/ml) was “impaired” and the “effect on uncoupler-induced fragmentation and OPA1 processing” value (HeLa cells [2]; CHX 175 μg/ml with CCCP 20 μM) was “did not interfere”.

With c1cnc2c(c1)ccc1cccnc12 [o-phenanthroline] the “block of uncoupler” value [5] was “block; also recorded: (at least partially) blocked” and the “block of uncoupler” value ([5]; listed as ortho-phenanthroline) was “inhibited”.

For CN[C@@H]1C[C@H]2O[C@@](C)([C@@H]1OC)n1c3ccccc3c3c4c(c5c6ccccc6n2c5c31)C(=O)NC4 [staurosporine], the “time to fragmentation of mitochondria” value (HeLa cells [6]) was 2 to 3 h, the “cells that released cytochrome c” value (HeLa cells [6]; only after 5-6 h) was “more than 50%” and the “change of OPA1 isoforms” value (HeLa cells [6]; western blot) was “disappearance of the two largest OPA1 isoforms”.

Source: patent US20100209436A1, “METHOD FOR TREATING DISEASES RELATED TO MITOCHONDRIAL DYSFUNCTION” (priority 2007, published 2010)
